According to ChEMBL document CHEMBL3885861, “Open TG-GATES”:

Organism: Rattus norvegicus
Assay: Open TG-GATES - Regimen: Daily Repeat
Assay type: toxicity, organism-based, Sprague-Dawley
Design: regimen Daily Repeat, gender Male, age 6 weeks
Details: in vivo, po, route gavage; for APTT / Bas / Eos / Fbg / Hb / Ht / Lym / MCH / MCHC / MCV / Mono / Neu / PT / Plat / RBC / Ret / WBC: tissue Blood; for KIDNEY_L / KIDNEY_R / KIDNEY_TOTAL: tissue Kidney; for LIVER: tissue Liver; for A/G / ALP / ALT / AST / BUN / CRE / Ca / Cl / DBIL / GLC / IP / K / LDH / Na / PL / RALB / TBIL / TC / TG / TP / gamma-GTP: tissue Plasma
[1] = 0 mg/kg, 72 h, dose level Control, time 3 day
[2] = 0 mg/kg, […], dose level Control, time 7 day
[3] = 0 mg/kg, […], dose level Control, time 14 day
[4] = 0 mg/kg, […], dose level Control, time 28 day
[5] = 50 mg/kg, 72 h, dose level Low, time 3 day
[6] = 50 mg/kg, […], dose level Low, time 7 day
[7] = 50 mg/kg, […], dose level Low, time 14 day
[8] = 50 mg/kg, […], dose level Low, time 28 day

## CC(=O)Oc1cc(C(C)C)c(OCCN(C)C)cc1C [MOXISYLYTE]
[1]
  TERMINAL_BW: 216.7 g
  APTT: 21.2 s
  Bas: 0%
  Eos: 1%
  Fbg: 327.4 mg/dL
  Hb: 13.7 g/dL
  Ht: 39.2%
  Lym: 81.2%
  MCH: 20.9 pg
  MCHC: 34.9%
  MCV: 59.9 fL
  Mono: 2.4%
  Neu: 14.2%
  PT: 16.5 s
  Plat: 116.4 x10_4/uL
  RBC: 655.4 x10_4/ul
  Ret: 6.2%
  WBC: 102.1 x10_2/uL
  KIDNEY_L: 0.9 g
  KIDNEY_R: 1 g
  KIDNEY_TOTAL: 1.9 g
  LIVER: 10.3 g
  A/G: 1.2
  ALP: 1472.6 IU/L
  ALT: 42.8 IU/L
  AST: 70.4 IU/L
  BUN: 17.2 mg/dL
  CRE: 0.2 mg/dL
  Ca: 10.8 mg/dL
  Cl: 106.6 meq/L
  DBIL: 0.004 mg/dL
  GLC: 181.4 mg/dL
  IP: 7 mg/dL
  K: 4.2 meq/L
  LDH: 202.6 IU/L
  Na: 142.4 meq/L
  PL: 154.2 mg/dL
  RALB: 3.1 g/dL
  TBIL: 0.014 mg/dL
  TC: 75.8 mg/dL
  TG: 97 mg/dL
  TP: 5.7 g/dL
  gamma-GTP: 1 IU/L
[2]
  TERMINAL_BW: 251.3 g
  APTT: 22.9 s
  Bas: 0%
  Eos: 0.6%
  Fbg: 294.6 mg/dL
  Hb: 13.6 g/dL
  Ht: 39%
  Lym: 81.4%
  MCH: 20.7 pg
  MCHC: 34.8%
  MCV: 59.5 fL
  Mono: 2%
  Neu: 15%
  PT: 15.6 s
  Plat: 119.6 x10_4/uL
  RBC: 656.8 x10_4/ul
  Ret: 5.1%
  WBC: 75.9 x10_2/uL
  KIDNEY_L: 1.1 g
  KIDNEY_R: 1.1 g
  KIDNEY_TOTAL: 2.1 g
  LIVER: 11.2 g
  A/G: 1.3
  ALP: 1660 IU/L
  ALT: 40.4 IU/L
  AST: 71.2 IU/L
  BUN: 18 mg/dL
  CRE: 0.2 mg/dL
  Ca: 10.7 mg/dL
  Cl: 106.6 meq/L
  DBIL: 0 mg/dL
  GLC: 189.2 mg/dL
  IP: 6.7 mg/dL
  K: 4.1 meq/L
  LDH: 219.2 IU/L
  Na: 142.6 meq/L
  PL: 155.2 mg/dL
  RALB: 3 g/dL
  TBIL: 0.004 mg/dL
  TC: 72.2 mg/dL
  TG: 138 mg/dL
  TP: 5.4 g/dL
  gamma-GTP: 1.4 IU/L
[3]
  TERMINAL_BW: 305.9 g
  APTT: 22.6 s
  Bas: 0%
  Eos: 1%
  Fbg: 308.2 mg/dL
  Hb: 15.1 g/dL
  Ht: 41.2%
  Lym: 79.4%
  MCH: 21.6 pg
  MCHC: 36.6%
  MCV: 59 fL
  Mono: 2%
  Neu: 16.4%
  PT: 16.1 s
  Plat: 118 x10_4/uL
  RBC: 699.2 x10_4/ul
  Ret: 5%
  WBC: 125 x10_2/uL
  KIDNEY_L: 1.2 g
  KIDNEY_R: 1.3 g
  KIDNEY_TOTAL: 2.5 g
  LIVER: 13.3 g
  A/G: 1.1
  ALP: 1709.2 IU/L
  ALT: 40 IU/L
  AST: 71.4 IU/L
  BUN: 20 mg/dL
  CRE: 0.2 mg/dL
  Ca: 10.7 mg/dL
  Cl: 106.2 meq/L
  DBIL: 0 mg/dL
  GLC: 197.6 mg/dL
  IP: 6 mg/dL
  K: 4.2 meq/L
  LDH: 170.8 IU/L
  Na: 141.4 meq/L
  PL: 148.4 mg/dL
  RALB: 3.1 g/dL
  TBIL: 0.008 mg/dL
  TC: 75.4 mg/dL
  TG: 114.6 mg/dL
  TP: 5.7 g/dL
  gamma-GTP: 1.4 IU/L
[4]
  TERMINAL_BW: 397.2 g
  APTT: 24 s
  Bas: 0%
  Eos: 1%
  Fbg: 320.8 mg/dL
  Hb: 14.4 g/dL
  Ht: 40.5%
  Lym: 82.2%
  MCH: 19.4 pg
  MCHC: 35.5%
  MCV: 54.7 fL
  Mono: 1.8%
  Neu: 13.5%
  PT: 15.9 s
  Plat: 100.5 x10_4/uL
  RBC: 741 x10_4/ul
  Ret: 3.1%
  WBC: 119.2 x10_2/uL
  KIDNEY_L: 1.5 g
  KIDNEY_R: 1.5 g
  KIDNEY_TOTAL: 3 g
  LIVER: 16.3 g
  A/G: 1.1
  ALP: 1031.5 IU/L
  ALT: 47.5 IU/L
  AST: 81.5 IU/L
  BUN: 17.5 mg/dL
  CRE: 0.2 mg/dL
  Ca: 10.3 mg/dL
  Cl: 104.5 meq/L
  DBIL: 0.0025 mg/dL
  GLC: 201.5 mg/dL
  IP: 6.9 mg/dL
  K: 4.1 meq/L
  LDH: 261 IU/L
  Na: 141 meq/L
  PL: 134.2 mg/dL
  RALB: 3 g/dL
  TBIL: 0.0025 mg/dL
  TC: 64.5 mg/dL
  TG: 116.5 mg/dL
  TP: 5.9 g/dL
  gamma-GTP: 1.5 IU/L
[5]
  TERMINAL_BW: 225.1 g
  APTT: 21.1 s
  Bas: 0%
  Eos: 1%
  Fbg: 329.8 mg/dL
  Hb: 13.7 g/dL
  Ht: 39.1%
  Lym: 80.6%
  MCH: 21.5 pg
  MCHC: 35%
  MCV: 61.5 fL
  Mono: 2.2%
  Neu: 14.6%
  PT: 16.2 s
  Plat: 126.9 x10_4/uL
  RBC: 635.6 x10_4/ul
  Ret: 6%
  WBC: 99.3 x10_2/uL
  KIDNEY_L: 1 g
  KIDNEY_R: 1 g
  KIDNEY_TOTAL: 1.9 g
  LIVER: 10.4 g
  A/G: 1.2
  ALP: 1826.8 IU/L
  ALT: 42.8 IU/L
  AST: 72.2 IU/L
  BUN: 16.2 mg/dL
  CRE: 0.2 mg/dL
  Ca: 11 mg/dL
  Cl: 106.4 meq/L
  DBIL: 0.004 mg/dL
  GLC: 178.8 mg/dL
  IP: 7.4 mg/dL
  K: 4.5 meq/L
  LDH: 242.8 IU/L
  Na: 141.4 meq/L
  PL: 158.8 mg/dL
  RALB: 3.1 g/dL
  TBIL: 0.004 mg/dL
  TC: 78.2 mg/dL
  TG: 108.8 mg/dL
  TP: 5.7 g/dL
  gamma-GTP: 1.2 IU/L
[6]
  TERMINAL_BW: 248.6 g
  APTT: 21.8 s
  Bas: 0%
  Eos: 0.6%
  Fbg: 312.6 mg/dL
  Hb: 13.7 g/dL
  Ht: 39.2%
  Lym: 79.6%
  MCH: 20.9 pg
  MCHC: 35.1%
  MCV: 59.5 fL
  Mono: 2.2%
  Neu: 16.8%
  PT: 15.9 s
  Plat: 122.1 x10_4/uL
  RBC: 659 x10_4/ul
  Ret: 4.9%
  WBC: 88.2 x10_2/uL
  KIDNEY_L: 1.1 g
  KIDNEY_R: 1.1 g
  KIDNEY_TOTAL: 2.2 g
  LIVER: 11.2 g
  A/G: 1.2
  ALP: 1475.2 IU/L
  ALT: 45 IU/L
  AST: 82.6 IU/L
  BUN: 16.6 mg/dL
  CRE: 0.2 mg/dL
  Ca: 10.6 mg/dL
  Cl: 106.6 meq/L
  DBIL: 0 mg/dL
  GLC: 179.4 mg/dL
  IP: 6.8 mg/dL
  K: 4.1 meq/L
  LDH: 202 IU/L
  Na: 141.6 meq/L
  PL: 146.6 mg/dL
  RALB: 3 g/dL
  TBIL: 0 mg/dL
  TC: 70.6 mg/dL
  TG: 144 mg/dL
  TP: 5.5 g/dL
  gamma-GTP: 1.2 IU/L
[7]
  TERMINAL_BW: 317.3 g
  APTT: 20.8 s
  Bas: 0%
  Eos: 1%
  Fbg: 308.8 mg/dL
  Hb: 14.2 g/dL
  Ht: 39.3%
  Lym: 77.8%
  MCH: 20.7 pg
  MCHC: 36.2%
  MCV: 57.2 fL
  Mono: 2.4%
  Neu: 18%
  PT: 16.1 s
  Plat: 108.1 x10_4/uL
  RBC: 686.8 x10_4/ul
  Ret: 5.1%
  WBC: 113.2 x10_2/uL
  KIDNEY_L: 1.3 g
  KIDNEY_R: 1.2 g
  KIDNEY_TOTAL: 2.5 g
  LIVER: 14 g
  A/G: 1.2
  ALP: 1349.4 IU/L
  ALT: 45.8 IU/L
  AST: 77.8 IU/L
  BUN: 19.8 mg/dL
  CRE: 0.2 mg/dL
  Ca: 10.8 mg/dL
  Cl: 107 meq/L
  DBIL: 0 mg/dL
  GLC: 186.6 mg/dL
  IP: 6.3 mg/dL
  K: 4.4 meq/L
  LDH: 256 IU/L
  Na: 141 meq/L
  PL: 156 mg/dL
  RALB: 3.2 g/dL
  TBIL: 0.002 mg/dL
  TC: 73.2 mg/dL
  TG: 184.6 mg/dL
  TP: 5.8 g/dL
  gamma-GTP: 1.4 IU/L
[8]
  TERMINAL_BW: 361 g
  APTT: 24.3 s
  Bas: 0%
  Eos: 1.2%
  Fbg: 324.8 mg/dL
  Hb: 14.9 g/dL
  Ht: 41.8%
  Lym: 84%
  MCH: 19.3 pg
  MCHC: 35.6%
  MCV: 54.3 fL
  Mono: 2%
  Neu: 12%
  PT: 16 s
  Plat: 101.5 x10_4/uL
  RBC: 770 x10_4/ul
  Ret: 2.5%
  WBC: 142.9 x10_2/uL
  KIDNEY_L: 1.4 g
  KIDNEY_R: 1.4 g
  KIDNEY_TOTAL: 2.8 g
  LIVER: 14.8 g
  A/G: 1
  ALP: 1078.4 IU/L
  ALT: 40.2 IU/L
  AST: 66.8 IU/L
  BUN: 17 mg/dL
  CRE: 0.2 mg/dL
  Ca: 10.4 mg/dL
  Cl: 106.6 meq/L
  DBIL: 0.002 mg/dL
  GLC: 184.4 mg/dL
  IP: 6.4 mg/dL
  K: 4.2 meq/L
  LDH: 147 IU/L
  Na: 142 meq/L
  PL: 151.2 mg/dL
  RALB: 3 g/dL
  TBIL: 0.002 mg/dL
  TC: 70 mg/dL
  TG: 170.4 mg/dL
  TP: 6 g/dL
  gamma-GTP: 2 IU/L
